Data set [1] deals with E. coli Rosetta DE3 pLysS. Description: MIC, liquid broth microdilution. It counts as cell-based, Escherichia coli. Particulars: 25% MHBII medium, 7.5 × 10^6 CFU/mL, 37 °C, 20 ± 2 h, turbidity 600 nm, at least twice in triplicate. On the procedure: (§1) The minimal inhibitory concentrations (MIC) were determined at least twice in triplicate using a liquid broth microdilution assay in sterile 96-well plates and a total volume of 100 μL per well. Aqueous peptide solutions were serially 2-fold diluted in 25% MHBII or 33% TSB medium in a volume of 50 µL. An overnight culture was diluted in 25% MHBII or 33% TSB medium to 1.5 × 10^7 CFU/mL, and an aliquot of 50 μL was added to each well. The final cell count in each well was 7.5 × 10^6 CFU/mL. The plates were incubated at 37 °C for 20 ± 2 h. The turbidity of each well was measured at a wavelength of 600 nm. The MIC was defined as the lowest peptide concentration where the turbidity was identical to medium only.

In another data set the test system is E. coli BW25113. The class given is cell-based, Escherichia coli. Particulars: BW25113, 2 h. The protocol:
as §1, with “The plates were incubated at 37 °C for 20 ± 2 h.” left out

For data set [2], the system named is E. coli BL21 (DE3) RIL ribosome extract. Particulars: values published for E. coli BL21 (DE3) RIL ribosome extract; read-out: Kd (printed in column Ros); cited from earlier work. From the text: Table 2 Antibacterial activities, dissociation (Kd), and inhibition constants (Ki) of ribosome binding obtained for all PrAMPs included in the current study for E. coli strains BW25113 (BW) and Rosetta DE3 pLysS (Ros). | column: Kd [µmol/L] ** / Ros

Data set [3] shares this test system. Particulars: values published for E. coli BL21 (DE3) RIL ribosome extract; read-out: Ki, cf-Api137; cited from earlier work.
Data set [4] has the same test system. Particulars: values published for E. coli BL21 (DE3) RIL ribosome extract; read-out: Ki, cf-Onc112; cited from earlier work. From the text: Table 2 Antibacterial activities, dissociation (Kd), and inhibition constants (Ki) of ribosome binding obtained for all PrAMPs included in the current study for E. coli strains BW25113 (BW) and Rosetta DE3 pLysS (Ros). | column: Ki [µmol/L] *** / cf-Onc112

The subject of data set [5] is 70S ribosome extract of E. coli BW25113. Briefly: Fluorescence polarization, Kd of cf-labeled peptides. It counts as binding, Escherichia coli. Particulars: determined for the cf-labeled peptide; BW25113 ribosome extract; 28 °C, 90 min; 95% confidence interval in brackets; triplicate on at least two days; read-out: Kd, BW. The protocol: (§2) E. coli BW25113 and E. coli Rosetta pLysS were cultivated in LB medium and harvested at an OD600 of ~4 by centrifugation (5000× g, 30 min, 4 °C). The cell pellets were washed by resuspension in ribosome preparation buffer (20 mmol/L Hepes-KOH, 6 mmol/L MgCl2, 30 mmol/L NH4Cl, pH 7.6, 4°C) and subsequent centrifugation (5000× g, 30 min, 4 °C). Cell pellets were suspended in ribosome preparation buffer ([…]) containing freshly added 2-mercapotethanol (4 mmol/L). Lysozyme was added to the resuspended cells and incubated on ice for 30 min. The cell suspension was disrupted six times using a FastPrep-24^TM 5G instrument (MP Biomedicals, Solon, OH, USA) with BigPrep 50 mL setting (40 s, 4.0 m/s), incubated with DNase I (5 mL/L) on ice for one hour and centrifuged (16,000× g, 30 min, 4 °C). The cell debris was removed from the supernatant by centrifugation (32,000× g, 60 min, 4 °C), and the supernatant was centrifuged again (165,000× g, 17 h, 4 °C). The pellet was resuspended in ribosome preparation buffer (0.1 mL per g cell pellet) to obtain the 70S ribosome extract and stored at −80 °C. The ribosome concentration was estimated by recording the absorbance at 260 nm (1 AU for a ribosome concentration of 28 nmol/L). The molecular weight of the 70S E. coli ribosome was assumed to be 2.3 MDa.
(§3) Kd was determined using a ribosome extract and cf-labeled peptides in ribosome preparation buffer. Briefly, black 384-well plates (flat bottom, Greiner Bio-One GmbH) were blocked with casein (0.5%, w/v) in phosphate buffer containing 0.05% (v/v) Tween 20 at 4 °C overnight and washed three times with phosphate buffer. A 2-fold dilution series of the ribosome extract (20 μL per well) in ribosome preparation buffer was prepared in a black 384-well plate (23 dilution steps). The cf-labeled peptide was dissolved in ribosome preparation buffer (20 μL, 40 nmol/L), added to each well, and incubated at 28 ± 1 °C. After 90 min, the fluorescence polarization was measured on a PARADIGMTM microplate reader (Beckman Coulter, Salzburg, Austria) in the top read position (λexc = 485 nm, λem = 535 nm) in triplicate on at least two different days. Data were fitted to a nonlinear, dose–response logistical transition equation [y= y0 + a/(1 + (x/x0)b)] using the Levenberg–Marquardt algorithm, with dissociation constants (Kd) represented by the x0 coefficients (GraphPad Prism for Windows v. 5.02, San Diego, CA, USA).

The test system of data set [6] is 70S ribosome extract of E. coli Rosetta DE3 pLysS. Described as above. It counts as binding, Escherichia coli. Particulars: determined for the cf-labeled peptide, 28 °C, 90 min, 95% confidence interval in brackets, triplicate on at least two days, read-out: Kd, Ros. The protocol: as §2, §3
The target of data set [7] is BW25113 ribosome extract, ribosomal binding site of Api137. Briefly: Fluorescence polarization competition against cf-Api137 (Ki). More on the design: species or system Escherichia coli. Particulars: unlabeled PrAMP against cf-labeled Api137, calculated from IC50, 95% confidence interval in brackets. On the procedure: as §2
(§4) Ki was determined for ribosome extracts using cf-labeled and unlabeled peptides in ribosome preparation buffer. Black 384-well plates were prepared as described above. Unlabeled peptides or antibiotics (20 µL, 656 µmol/L) were added and 2-fold serially diluted in 23 wells in ribosome preparation buffer. A ribosome solution was prepared by adjusting the ribosome concentration to ~90% of the upper Kd plateau obtained for the cf-labeled peptide to be studied and added to each well (10 µL). […] The fluorescence polarization was measured on a PARADIGMTM microplate reader in the top read position (λexc = 485 nm, λem = 535 nm) in triplicate on at least two different days. […] Inhibition constants, Ki, were calculated as described by Mathias and Jung.

In data set [8] the target is BW25113 ribosome extract, ribosomal binding site of Onc112. Description: Fluorescence polarization competition against cf-Onc112 (Ki). More on the design: species or system Escherichia coli. Particulars: unlabeled PrAMP against cf-labeled Onc112, calculated from IC50, 95% confidence interval in brackets. The protocol:
as §2, §4

Data set [9] has as its target 70S ribosome extract of E. coli BW25113 (E. coli BW25113 (endogenous)).
Data set [10] shares this target. Description: fluorescence polarisation; competition: unlabeled peptide (2-fold series from 656 µmol/L) pre-incubated with BW25113 ribosome extract (28 °C, 90 min), then cf-Api137 (10 µL, 80 nmol/L) added (28 °C, 90 min); ribosome preparation buffer; Ki calculated from IC50.
Data set [11] has the same target. Description: fluorescence polarisation; competition: unlabeled peptide (2-fold series from 656 µmol/L) pre-incubated with BW25113 ribosome extract (28 °C, 90 min), then cf-Onc112 (10 µL, 80 nmol/L) added (28 °C, 90 min); ribosome preparation buffer; Ki calculated from IC50.
The nature of data set [12]: lysates of E. coli BW25113. Particulars: E. coli BW25113, 37 °C, up to 24 h.
Data set [13] in a line: lysates of E. coli Rosetta pLysS. Particulars: 37 °C, up to 24 h.
Data set [14] concerns the target 70S ribosome extract of E. coli BW25113 (E. coli BW25113 (endogenous)). The source holds these as a separate data set.

≈ marks a conversion by molar mass, not a printed value. Where two headings read alike, the source gives them in different places. Square brackets hold non-standard residues; d marks the D form. Ends that are not written are not given here. Peptide text beside a SMILES is read from it.

The values below come from paper PMC9025336 (Antibiotics, 2022).

On to `CC[C@H](C)[C@H](NC(=O)[C@@H]1CCCN1C(=O)[C@H](CCCNC(=N)N)NC(=O)[C@@H]1CCCN1C(=O)[C@H](Cc1c[nH]cn1)NC(=O)[C@H](CO)NC(=O)[C@@H](NC(=O)[C@@H]1CCCN1C(=O)[C@H](CCCNC(=N)N)NC(=O)[C@@H]1CCCN1C(=O)[C@H](CO)NC(=O)[C@H](Cc1ccc(O)cc1)NC(=O)[C@@H]1CCCN1C(=O)[C@H](CCCNC(=N)N)NC(=O)[C@@H]1CCCN1C(=O)[C@H](CCCCN)NC(=O)CN)[C@@H](C)O)C(=O)N[C@@H](CCCNC(=N)N)C(=O)N[C@H](C(=O)O)C(C)C` [Drosocin] (H-GKPRPYSPRPTSHPRPIRV-OH; N-terminus assumed), for which the “MIC, Ros” value in data set [1] is given as 8 µg/mL (≈ 3.64 µM). For the same molecule, the “MIC, BW” value in the data set with E. coli BW25113 is 128 µg/mL (≈ 58.2 µM). Moreover, the Kd in [2] was 1080 nM. For the same molecule, the Ki is 9 nM in data set [3] and 1780 nM in data set [4].
Regarding `CC[C@H](C)[C@H](NC(=O)[C@@H](CCCNC(=N)N)NC(=O)[C@H](CCCNC(=N)N)NC(=O)[C@@H]1CCCN1C(=O)[C@@H]1CCCN1C(=O)[C@H](CCCNC(=N)N)NC(=O)[C@@H]1CCCN1C(=O)[C@H](CCCNC(=N)N)NC(=O)[C@@H]1CCCN1C(=O)[C@H](CC(C)C)NC(=O)[C@H](Cc1ccc(O)cc1)NC(=O)[C@@H]1CCCN1C(=O)[C@@H]1CCCN1C(=O)[C@H](CCCCN)NC(=O)[C@H](CC(=O)O)NC(=O)[C@@H](N)C(C)C)C(=O)N[C@@H](Cc1ccc(O)cc1)C(=O)N[C@@H](CC(N)=O)C(=O)N[C@H](CCCNC(=N)N)C(N)=O` [Onc112] (H-VDKPPYLPRPRPPR[dR]IYN[dR]-NH2), the “MIC, Ros” value in [1] was determined as 4 µg/mL (≈ 1.67 µM). For the same molecule, the Kd in data set [5] came out at 27 nM; in data set [6], 51 nM. For the same molecule, the inhibitory constant (Ki) was 606 nM in data set [7] and 8 nM in data set [8]. In addition, the “MIC, BW” value against E. coli BW25113 is reported as 4 µg/mL (≈ 1.67 µM).
Api137 (peptide) came in with an inhibition of in vitro translation of GFP (PureExpress Delta RF123 kit with the kit's own ribosomes, RF1 added), GFP fluorescence relative to no PrAMP; peptide 0.05, 5 and 50 µmol/L in data set [9] of 77%. The Ki in data set [10] was 2 nM; in [11], 219 nM.
With GNNRPIYIPRPRPPHPRPIRV-OH, the fragment found result in data set [12] was “Api805 1-16 (GNNRPIYIPRPRPPHP-OH), major”; in [13], “Api805 1-16 (GNNRPIYIPRPRPPHP-OH), major”.
With gu-ONNRPVYIPRPRPPHPRL-OH, the fragment found entry was “Api137 1-17 (Gu-ONNRPVYIPRPRPPHPR-OH), major” in [12] and “Api137 1-17 (Gu-ONNRPVYIPRPRPPHPR-OH), major” in data set [13].
In [14], GNNRPIYIPRPRPPHPRPIRV-OH [Api805] had an inhibition of in vitro translation of GFP (PureExpress Delta RF123 kit with the kit's own ribosomes, RF1 added), GFP fluorescence relative to no PrAMP; peptide 0.05, 5 and 50 µmol/L of 52%; an inhibition of in vitro translation of GFP (PureExpress Delta RF123 kit with the kit's own ribosomes, no release factor), GFP fluorescence relative to no PrAMP; peptide 0.05, 5 and 50 µmol/L of 38%. Also, the Ki in data set [10] is 1070 nM. In addition, in data set [11], the Ki is 489 nM.
